Measurements taken from patent publication US20250012799A1, “SARS-COV-2 POLYPEPTIDES AND USES THEREOF” (IAMA FRANCE, priority 2021, published 2025).
Where two headings read alike, the source gives them in different places.

Tests used:
[1] = system: NKp44L membrane expression on Calu-3 cells; type: cell-based, human; conditions: for Induction of NKp44L membrane expression: Calu-3, individual peptides/pools of sub-pools no 8.2 and no 8.3; for induction of the expression of NKp44L (in words): Calu-3 lung cell line
[2] = system: NKp44L membrane expression on A549: hu ACE-2 cells; type: cell-based, human; conditions: for induction of the expression of NKp44L (in words): A549: hu ACE-2 lung cell line; for Induction of NKp44L membrane expression: A549, individual peptides/pools of sub-pools no 8.2 and no 8.3

| Substance | Induction of NKp44L membrane expression ([1]; Experiment no 1) | Induction of NKp44L membrane expression ([1]; Experiment no 2) | Induction of NKp44L membrane expression ([1]; Experiment no 3) | induction of the expression of NKp44L (in words) [1] | induction of the expression of NKp44L (in words) [2] | Induction of NKp44L membrane expression ([2]; Experiment no 1) | Induction of NKp44L membrane expression ([2]; Experiment no 2) | Induction of NKp44L membrane expression ([2]; Experiment no 3) |
| --- | --- | --- | --- | --- | --- | --- | --- | --- |
| rfngigvtqnvlyengkl [Spi227] | 2507 | 2726 | 2592 | induce the expression of NKp44L | induce the expression of NKp44L | 1402 | 1517 | 1538 |
| qnvlyenqkliangfnsa [Spi229] | 2103 | 1889 | 1875 | induce the expression of NKp44L | induce the expression of NKp44L | 1167 | 1021 | 993 |
| yenqklianqfnsaigki [Spi230] | 2213 | 2403 | 2173 | induce the expression of NKp44L | induce the expression of NKp44L | 1202 | 1198 | 1195 |
| qmayrfngigvtqnvlye [Spi226] | 103 | 112 | 119 |  |  | 53 | 59 | 71 |
| igvtqnvlyenqklianq [Spi228] | 91 | 103 | 117 |  |  | 75 | 82 | 89 |
| nqfnsaigkiqdslssta [Spi232] | 421 | 301 | 412 |  |  | 101 | 127 | 148 |
| klianqfnsaigkiqdsl [Spi231] | 2250 | 2406 | 2207 | induce the expression of NKp44L | induce the expression of NKp44L | 1308 | 1232 | 1199 |
